Numbers after ± are expanded uncertainties.
Assay: xn = mol fraction of the nth substance listed
Details: 304.21 K, Fluid (supercritical or subcritical phases), Vibrating tube method, x1 = 0.97

`O=C=O` [carbon dioxide] + CO showed a mass density (13650 kPa) of 834.12 ± 0.82 kg/m3, a mass density (13675 kPa) of 834.42 ± 0.82 kg/m3 and a mass density (13700 kPa) of 834.66 ± 0.82 kg/m3. The mass density (13725 kPa) was 834.9 ± 0.82 kg/m3, the mass density (13750 kPa) was 835.2 ± 0.82 kg/m3 and the mass density (13775 kPa) was 835.42 ± 0.82 kg/m3. For the same compound, the mass density (13800 kPa) was 835.64 ± 0.82 kg/m3, the mass density (13825 kPa) was 835.86 ± 0.82 kg/m3 and the mass density (13850 kPa) was 836.06 ± 0.82 kg/m3. The mass density (13875 kPa) was 836.22 ± 0.82 kg/m3, the mass density (13900 kPa) was 836.51 ± 0.82 kg/m3 and the mass density (13925 kPa) was 836.81 ± 0.82 kg/m3. The mass density (13950 kPa) was 837.08 ± 0.82 kg/m3, the mass density (13975 kPa) was 837.35 ± 0.82 kg/m3 and the mass density (14000 kPa) was 837.64 ± 0.82 kg/m3. For the same compound, the mass density (14025 kPa) was 837.92 ± 0.82 kg/m3, the mass density (14050 kPa) was 838.19 ± 0.82 kg/m3 and the mass density (14075 kPa) was 838.5 ± 0.82 kg/m3. It also gave a mass density (14100 kPa) of 838.78 ± 0.82 kg/m3, a mass density (14125 kPa) of 839.03 ± 0.82 kg/m3 and a mass density (14150 kPa) of 839.31 ± 0.82 kg/m3. It also gave a mass density (14175 kPa) of 839.62 ± 0.82 kg/m3, a mass density (14200 kPa) of 839.87 ± 0.82 kg/m3 and a mass density (14225 kPa) of 840.12 ± 0.82 kg/m3. For the same compound, the mass density (14250 kPa) was 840.43 ± 0.82 kg/m3, the mass density (14275 kPa) was 840.68 ± 0.82 kg/m3 and the mass density (14300 kPa) was 840.92 ± 0.82 kg/m3. For the same compound, the mass density (14325 kPa) was 841.24 ± 0.82 kg/m3, the mass density (14350 kPa) was 841.49 ± 0.82 kg/m3 and the mass density (14375 kPa) was 841.72 ± 0.82 kg/m3. It also gave a mass density (14400 kPa) of 842.04 ± 0.82 kg/m3, a mass density (14425 kPa) of 842.27 ± 0.82 kg/m3 and a mass density (14450 kPa) of 842.52 ± 0.82 kg/m3. The mass density (14475 kPa) was 842.78 ± 0.82 kg/m3, the mass density (14500 kPa) was 843.08 ± 0.82 kg/m3 and the mass density (14525 kPa) was 843.34 ± 0.82 kg/m3. For the same compound, the mass density (14550 kPa) was 843.58 ± 0.82 kg/m3, the mass density (14575 kPa) was 843.9 ± 0.82 kg/m3 and the mass density (14600 kPa) was 844.14 ± 0.82 kg/m3. For the same compound, the mass density (14625 kPa) was 844.38 ± 0.82 kg/m3, the mass density (14650 kPa) was 844.61 ± 0.82 kg/m3 and the mass density (14675 kPa) was 844.86 ± 0.82 kg/m3. The mass density (14700 kPa) was 845.17 ± 0.82 kg/m3, the mass density (14725 kPa) was 845.44 ± 0.82 kg/m3 and the mass density (14750 kPa) was 845.72 ± 0.82 kg/m3. For the same compound, the mass density (14775 kPa) was 845.96 ± 0.82 kg/m3, the mass density (14800 kPa) was 846.19 ± 0.82 kg/m3 and the mass density (14825 kPa) was 846.5 ± 0.82 kg/m3. The mass density (14850 kPa) was 846.73 ± 0.82 kg/m3, the mass density (14875 kPa) was 846.98 ± 0.82 kg/m3 and the mass density (14900 kPa) was 847.24 ± 0.82 kg/m3. It also gave a mass density (14925 kPa) of 847.52 ± 0.82 kg/m3, a mass density (14950 kPa) of 847.71 ± 0.82 kg/m3 and a mass density (14975 kPa) of 848 ± 0.82 kg/m3. It also gave a mass density (15000 kPa) of 848.29 ± 0.82 kg/m3, a mass density (15025 kPa) of 848.51 ± 0.82 kg/m3 and a mass density (15050 kPa) of 848.76 ± 0.82 kg/m3. It also gave a mass density (15075 kPa) of 849.02 ± 0.82 kg/m3, a mass density (15100 kPa) of 849.3 ± 0.82 kg/m3 and a mass density (15125 kPa) of 849.56 ± 0.82 kg/m3. For the same compound, the mass density (15150 kPa) was 849.76 ± 0.82 kg/m3, the mass density (15175 kPa) was 850.04 ± 0.82 kg/m3 and the mass density (15200 kPa) was 850.3 ± 0.82 kg/m3. For the same compound, the mass density (15225 kPa) was 850.56 ± 0.82 kg/m3, the mass density (15250 kPa) was 850.76 ± 0.82 kg/m3 and the mass density (15275 kPa) was 851.04 ± 0.82 kg/m3. The mass density (15300 kPa) was 851.23 ± 0.82 kg/m3, the mass density (15325 kPa) was 851.51 ± 0.82 kg/m3 and the mass density (15350 kPa) was 851.79 ± 0.82 kg/m3. For the same compound, the mass density (15375 kPa) was 851.98 ± 0.82 kg/m3, the mass density (15400 kPa) was 852.22 ± 0.82 kg/m3 and the mass density (15425 kPa) was 852.43 ± 0.82 kg/m3. The mass density (15450 kPa) was 852.7 ± 0.82 kg/m3, the mass density (15475 kPa) was 852.92 ± 0.82 kg/m3 and the mass density (15500 kPa) was 853.2 ± 0.82 kg/m3. The mass density (15525 kPa) was 853.4 ± 0.82 kg/m3, the mass density (15550 kPa) was 853.64 ± 0.82 kg/m3 and the mass density (15575 kPa) was 853.89 ± 0.82 kg/m3. For the same compound, the mass density (15600 kPa) was 854.15 ± 0.82 kg/m3, the mass density (15625 kPa) was 854.39 ± 0.82 kg/m3 and the mass density (15650 kPa) was 854.57 ± 0.82 kg/m3. It also gave a mass density (15675 kPa) of 854.81 ± 0.82 kg/m3, a mass density (15700 kPa) of 855.06 ± 0.82 kg/m3 and a mass density (15725 kPa) of 855.3 ± 0.82 kg/m3. For the same compound, the mass density (15750 kPa) was 855.49 ± 0.82 kg/m3, the mass density (15775 kPa) was 855.71 ± 0.82 kg/m3 and the mass density (15800 kPa) was 855.96 ± 0.82 kg/m3. The mass density (15825 kPa) was 856.2 ± 0.82 kg/m3, the mass density (15850 kPa) was 856.41 ± 0.82 kg/m3 and the mass density (15875 kPa) was 856.68 ± 0.82 kg/m3. For the same compound, the mass density (15900 kPa) was 856.93 ± 0.82 kg/m3, the mass density (15925 kPa) was 857.08 ± 0.82 kg/m3 and the mass density (15950 kPa) was 857.32 ± 0.82 kg/m3. The mass density (15975 kPa) was 857.56 ± 0.82 kg/m3, the mass density (16000 kPa) was 857.77 ± 0.82 kg/m3 and the mass density (16025 kPa) was 857.95 ± 0.82 kg/m3. For the same compound, the mass density (16050 kPa) was 858.19 ± 0.82 kg/m3, the mass density (16075 kPa) was 858.44 ± 0.82 kg/m3 and the mass density (16100 kPa) was 858.66 ± 0.82 kg/m3. It also gave a mass density (16125 kPa) of 858.84 ± 0.82 kg/m3, a mass density (16150 kPa) of 859.07 ± 0.82 kg/m3 and a mass density (16175 kPa) of 859.32 ± 0.82 kg/m3. For the same compound, the mass density (16200 kPa) was 859.52 ± 0.82 kg/m3, the mass density (16225 kPa) was 859.74 ± 0.82 kg/m3 and the mass density (16250 kPa) was 859.97 ± 0.82 kg/m3. For the same compound, the mass density (16275 kPa) was 860.2 ± 0.82 kg/m3, the mass density (16300 kPa) was 860.35 ± 0.82 kg/m3 and the mass density (16325 kPa) was 860.63 ± 0.82 kg/m3. It also gave a mass density (16350 kPa) of 860.83 ± 0.82 kg/m3, a mass density (16375 kPa) of 861.01 ± 0.82 kg/m3 and a mass density (16400 kPa) of 861.22 ± 0.82 kg/m3. It also gave a mass density (16425 kPa) of 861.43 ± 0.82 kg/m3, a mass density (16450 kPa) of 861.65 ± 0.82 kg/m3 and a mass density (16475 kPa) of 861.85 ± 0.82 kg/m3. For the same compound, the mass density (16500 kPa) was 862.01 ± 0.82 kg/m3, the mass density (16525 kPa) was 862.21 ± 0.82 kg/m3 and the mass density (16550 kPa) was 862.42 ± 0.82 kg/m3. The mass density (16575 kPa) was 862.62 ± 0.82 kg/m3, the mass density (16600 kPa) was 862.9 ± 0.82 kg/m3 and the mass density (16625 kPa) was 863.08 ± 0.82 kg/m3. For the same compound, the mass density (16650 kPa) was 863.26 ± 0.82 kg/m3 and the mass density (16675 kPa) was 863.56 ± 0.82 kg/m3.

— the NIST ThermoML archive (doi:10.1016/j.jct.2016.03.026)
